# Experimental data: ChEMBL document CHEMBL1208740, “beta-Secretase (BACE-1) inhibitory effect of biflavonoids” (Bioorg Med Chem Lett, 2010)
# pIC50: −log10 of the molar value.
# Target: Beta-secretase 1 (Homo sapiens, UniProt P56817)
# Assay: Inhibition of BACE1 after 60 mins by FRET assay
# Chain of Beta-secretase 1 (P56817 whole entry): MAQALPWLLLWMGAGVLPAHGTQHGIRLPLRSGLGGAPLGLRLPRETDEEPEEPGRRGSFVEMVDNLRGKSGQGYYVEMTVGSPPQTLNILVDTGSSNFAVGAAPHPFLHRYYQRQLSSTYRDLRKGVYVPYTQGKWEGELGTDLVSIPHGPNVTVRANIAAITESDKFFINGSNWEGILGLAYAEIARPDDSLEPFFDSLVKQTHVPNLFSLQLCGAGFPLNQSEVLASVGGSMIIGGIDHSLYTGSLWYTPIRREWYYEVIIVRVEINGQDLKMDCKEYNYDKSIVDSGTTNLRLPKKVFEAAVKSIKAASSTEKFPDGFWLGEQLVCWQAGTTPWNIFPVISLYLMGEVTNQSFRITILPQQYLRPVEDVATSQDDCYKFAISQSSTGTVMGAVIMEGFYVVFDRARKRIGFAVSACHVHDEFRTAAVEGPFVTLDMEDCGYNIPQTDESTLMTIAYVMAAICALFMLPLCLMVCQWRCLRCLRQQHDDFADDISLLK
row,Compound,pIC50
1,COc1cc(O)c2c(=O)cc(-c3ccc(OC)c(-c4c(OC)cc(O)c5c(=O)cc(-c6ccc(O)cc6)oc45)c3)oc2c1,< 5.00
2,COc1ccc(-c2cc(=O)c3c(O)cc(OC)c(-c4cc(-c5cc(=O)c6c(O)cc(OC)cc6o5)ccc4O)c3o2)cc1 [HEVEAFLAVONE],< 5.00
3,"COc1ccc(-c2cc(=O)c3c(O)cc(OC)c(-c4cc(-c5cc(=O)c6c(O)cc(O)cc6o5)ccc4O)c3o2)cc1 [7'',4'''-dimethylamentoflavone]",< 5.00
4,O=c1cc(-c2ccc(O)cc2)oc2c(-c3c(O)cc(O)c4c(=O)cc(-c5ccc(O)cc5)oc34)c(O)cc(O)c12 [CUPRESSUFLAVONE],< 5.00
5,COc1ccc(-c2cc(=O)c3c(O)cc(O)cc3o2)cc1-c1c(OC)cc(O)c2c(=O)cc(-c3ccc(O)cc3)oc12,< 5.00
6,COc1cc(O)c2c(=O)cc(-c3ccc(O)c(-c4c(OC)cc(O)c5c(=O)cc(-c6ccc(O)cc6)oc45)c3)oc2c1,5.20
7,COc1ccc(-c2cc(=O)c3c(O)cc(OC)c(-c4cc(-c5cc(=O)c6c(O)cc(O)cc6o5)ccc4OC)c3o2)cc1 [KAYAFLAVONE],< 5.00
8,COc1ccc(-c2cc(=O)c3c(O)cc(O)cc3o2)cc1-c1c(O)cc(O)c2c(=O)cc(-c3ccc(O)cc3)oc12 [BILOBETIN],5.69
9,O=c1cc(-c2ccc(Oc3c(O)cc4oc(-c5ccc(O)cc5)cc(=O)c4c3O)cc2)oc2cc(O)cc(O)c12 [HINOKIFLAVONE],< 5.00
10,COc1ccc([C@@H]2CC(=O)c3c(cc(OC)c(C)c3O)O2)cc1-c1c(O)cc(O)c2c(=O)cc(-c3ccc(O)cc3)oc12,6.46
11,O=c1cc(-c2ccc(O)c(-c3c(O)cc(O)c4c(=O)cc(-c5ccc(O)cc5)oc34)c2)oc2cc(O)cc(O)c12 [AMENTOFLAVONE],5.81
12,COc1ccc(-c2cc(=O)c3c(O)cc(OC)c(-c4cc(-c5cc(=O)c6c(O)cc(OC)cc6o5)ccc4OC)c3o2)cc1,< 5.00
13,COc1ccc(-c2cc(=O)c3c(O)cc(O)c(-c4cc(-c5cc(=O)c6c(O)cc(O)cc6o5)ccc4OC)c3o2)cc1 [ISOGINKGETIN],5.52
14,COc1cc(O)c2c(=O)cc(-c3ccc(OC)c(-c4c(O)cc(O)c5c(=O)cc(-c6ccc(O)cc6)oc45)c3)oc2c1 [GINKGETIN],5.38

# The next lines start with the values.
row,pIC50,Compound
1,5.80,COc1cc(O)c2c(=O)cc(-c3ccc(O)cc3)oc2c1-c1cc(-c2cc(=O)c3c(O)cc(O)cc3o2)ccc1O [SOTETSUFLAVONE]
2,5.85,COc1cc(O)c2c(=O)cc(-c3ccc(O)c(-c4c(O)cc(O)c5c(=O)cc(-c6ccc(O)cc6)oc45)c3)oc2c1 [SEQUOIAFLAVONE]
3,6.00,COc1ccc(-c2cc(=O)c3c(O)cc(O)c(-c4cc(-c5cc(=O)c6c(O)cc(O)cc6o5)ccc4O)c3o2)cc1 [PODOCARPUSFLAVONE A]
4,< 5.00,COc1ccc(-c2cc(=O)c3c(O)cc(O)c(-c4cc(-c5cc(=O)c6c(O)cc(OC)cc6o5)ccc4OC)c3o2)cc1 [SCIADOPITISIN]
5,5.38,COc1ccc(-c2cc(=O)c3c(O)cc(O)c(-c4cc(-c5cc(=O)c6c(O)cc(OC)cc6o5)ccc4O)c3o2)cc1 [PODOCARPUSFLAVONE B]
6,< 5.00,O=c1cc(-c2ccc(O)c(-c3c(O)cc4oc(-c5ccc(O)cc5)cc(=O)c4c3O)c2)oc2cc(O)cc(O)c12 [ROBUSTAFLAVONE]
